The values below come from patent US9511058B2, “Methods for using carboxamide, sulfonamide and amine compounds” (Rigel Pharmaceuticals, Inc., priority 2010, dated 2016).

The structures appear in SMILES notation. Some results are limits rather than exact numbers.

One assay addresses AMPK. Briefly: AMPK activation, enzyme-linked immunosorbent assay. It counts as biochemical. As to conditions: compounds of Table 1 (Table 6).
`O=C(NC1CCNCC1)c1cc2cc(OC3CCN(c4ccc(C(F)(F)F)cc4)CC3)ccc2s1` [1-150, N-(piperidin-4-yl)-5-(1-(4-(trifluoromethyl)phenyl)piperidin-4-yloxy)benzo[b]thiophene-2-carboxamide]: the EC50 (in general, the concentration needed to bring the measured effect to its halfway point) lay in the range of 1000 to 5000 nM.
Still for that read-out and setting: in the case of `O=C(NC1CCN(Cc2ccc(F)cc2)CC1)c1cc(OC2CCN(c3ccc(C(F)(F)F)cc3)CC2)ccn1` [1-29, N-(1-(4-fluorobenzyl)piperidin-4-yl)-4-(1-(4-(trifluoromethyl)phenyl)piperidin-4-yloxy)picolinamide] it was 100 to 500 nM.
In turn, `CN(C(=O)c1cc2cc(OC3CCN(c4ccc(C(F)(F)F)cc4)CC3)ccc2o1)C1CCN(C(=O)c2ccncc2)CC1` [1-118, N-(1-isonicotinoylpiperidin-4-yl)-N-methyl-5-(1-(4-(trifluoromethyl)phenyl)piperidin-4-yloxy)benzofuran-2-carboxamide] displayed an EC50 of 100 to 500 nM.
As for `CC(C)(C)OC(=O)N1CCC(NC(=O)c2ccnc(OC3CCN(c4ccc(C(F)(F)F)cc4)CC3)c2)CC1` [1-15, tert-butyl 4-(2-(1-(4-(trifluoromethyl)phenyl)piperidin-4-yloxy)isonicotinamido)piperidine-1-carboxylate], the EC50 was 1000 to 5000 nM.
Same read-out and setting: in the case of `O=C(N[C@H]1CCN(Cc2ccncc2)C1)c1cc2cc(OC3CCN(Cc4ccc(Cl)cc4)CC3)ccc2o1` [1-129, (S)-5-(1-(4-chlorobenzyl)piperidin-4-yloxy)-N-(1-(pyridin-4-ylmethyl)pyrrolidin-3-yl)benzofuran-2-carboxamide] it was 1000 to 5000 nM; in that of `Cc1c(C(=O)NC2CCN(Cc3ccc(F)cc3)CC2)oc2cc(OC3CCN(c4ccc(C(F)(F)F)cc4)CC3)ccc12` [1-63, N-(1-(4-fluorobenzyl)piperidin-4-yl)-3-methyl-6-(1-(4-(trifluoromethyl)phenyl)piperidin-4-yloxy)benzofuran-2-carboxamide], less than 100 nM.
In turn, `CN(C(=O)c1cc2cc(OC3CCN(c4ccc(C(F)(F)F)cc4)CC3)ccc2o1)C1CCNCC1` [1-103, N-methyl-N-(piperidin-4-yl)-5-(1-(4-(trifluoromethyl)phenyl)piperidin-4-yloxy)benzofuran-2-carboxamide] came in with an EC50 of 1000 to 5000 nM.
The compound `N#Cc1ccc(N2CCC(Oc3ccc(C(=O)NC4CCN(Cc5ccncc5)CC4)nc3)CC2)cc1` [1-1, 5-(1-(4-cyanophenyl)piperidin-4-yloxy)-N-(1-(pyridin-4-ylmethyl)piperidin-4-yl)picolinamide] showed an EC50 of 100 to 500 nM.
For the compound `FC(F)(F)c1ccc(N2CCC(Oc3ccc4c(c3)CCC4NC3CCN(Cc4ccncc4)CC3)CC2)cc1` (stereo not drawn) [1-158, 1-(pyridin-4-ylmethyl)-N-(5-(1-(4-(trifluoromethyl)phenyl)piperidin-4-yloxy)-2,3-dihydro-1H-inden-1-yl)piperidin-4-amine], the EC50 fell in the range of 100 to 500 nM.
In the case of `O=C(NC1CCN(Cc2ccncc2)CC1)c1cc2cc(OC3CCN(c4ccc(C(F)(F)F)cc4)CC3)ccc2s1` [1-138, N-(1-(pyridin-4-ylmethyl)piperidin-4-yl)-5-(1-(4-(trifluoromethyl)phenyl)piperidin-4-yloxy)benzo[b]thiophene-2-carboxamide], the EC50 was less than 100 nM.
As for `CC(C)(C)OC(=O)N1CCC(NC(=O)c2cc(OC3CCN(c4ccc(C(F)(F)F)cc4)CC3)ccn2)CC1` [1-12, tert-butyl 4-(4-(1-(4-(trifluoromethyl)phenyl)piperidin-4-yloxy)picolinamido)piperidine-1-carboxylate], the EC50 was 500 to 1000 nM.
`N#Cc1ccc(CN2CC[C@@H](NC(=O)c3ccc(OC4CCN(c5ccc(C(F)(F)F)cc5)CC4)cn3)C2)cc1` [1-33, (R)-N-(1-(4-cyanobenzyl)pyrrolidin-3-yl)-5-(1-(4-(trifluoromethyl)phenyl)piperidin-4-yloxy)picolinamide] showed an EC50 of 500 to 1000 nM.
As for `O=C(NC1CCN(Cc2ccccn2)CC1)c1cc2ccc(OC3CCN(c4ccc(C(F)(F)F)cc4)CC3)cc2o1` [1-93, N-(1-(pyridin-2-ylmethyl)piperidin-4-yl)-6-(1-(4-(trifluoromethyl)phenyl)piperidin-4-yloxy)benzofuran-2-carboxamide], the EC50 was in the range of 100 to 500 nM.
`O=C(NC1CCNCC1)c1cc2ccc(OC3CCN(c4ccc(C(F)(F)F)cc4)CC3)cc2o1` [1-84, N-(piperidin-4-yl)-6-(1-(4-(trifluoromethyl)phenyl)piperidin-4-yloxy)benzofuran-2-carboxamide]: the half-maximal effective concentration (EC50) was 5000 to 10000 nM.
The compound `Cc1c(C(=O)NC2CCN(Cc3ccc(C#N)cc3)CC2)oc2cc(OC3CCN(c4ccc(C(F)(F)F)cc4)CC3)ccc12` [1-64, N-(1-(4-cyanobenzyl)piperidin-4-yl)-3-methyl-6-(1-(4-(trifluoromethyl)phenyl)piperidin-4-yloxy)benzofuran-2-carboxamide] showed an EC50 of less than 100 nM.
Still for that read-out and setting: next, `N#Cc1ccc(CN2CCC(NC(=O)c3ccnc(OC4CCN(c5ccc(C(F)(F)F)cc5)CC4)c3)CC2)cc1` [1-21, N-(1-(4-cyanobenzyl)piperidin-4-yl)-2-(1-(4-(trifluoromethyl)phenyl)piperidin-4-yloxy)isonicotinamide]: 100 to 500 nM.
With `O=C(NC1CCNCC1)c1sc2cc(OC3CCN(c4ccc(C(F)(F)F)cc4)CC3)ccc2c1Cl` [1-148, 3-chloro-N-(piperidin-4-yl)-6-(1-(4-(trifluoromethyl)phenyl)piperidin-4-yloxy)benzo[b]thiophene-2-carboxamide], the EC50 is more than 10000 nM.
`N#Cc1ccc(N2CCC(Oc3ccc4oc(C(=O)NC5CCN(Cc6ccccc6)CC5)cc4c3)CC2)cc1` [1-71, N-(1-benzylpiperidin-4-yl)-5-(1-(4-cyanophenyl)piperidin-4-yloxy)benzofuran-2-carboxamide] displayed an EC50 of less than 100 nM.
The compound `CN(C)c1ccc(CN2CCC(NC(=O)c3ccc(OC4CCN(c5ccc(C(F)(F)F)cc5)CC4)cn3)CC2)cc1` [1-39, N-(1-(4-(dimethylamino)benzyl)piperidin-4-yl)-5-(1-(4-(trifluoromethyl)phenyl)piperidin-4-yloxy)picolinamide] had an EC50 of 100 to 500 nM.

Still in this assay, the particulars now being: compounds of Table 2 (Table 7).
As to `Cn1c2c(c3cc(C(=O)NC4CCN(Cc5ccc(C#N)cc5)CC4)ccc31)CN(Cc1ccc(C(F)(F)F)cc1)CC2` [2-16], the EC50 is less than 500 nM.
As for `N#Cc1ccc(CN2CCC(NC(=O)c3ccc4[nH]c5c(c4c3)CN(C(=O)OCc3ccccc3)CC5)CC2)cc1` [2-1, benzyl 8-(1-(4-cyanobenzyl)piperidin-4-ylcarbamoyl)-3,4-dihydro-1H-pyrido[4,3-b]indole-2(5H)-carboxylate], the EC50 lay in the range of 1000 to 5000 nM.
`O=C(NC1CCN(Cc2ccccc2)CC1)c1ccc2[nH]c3c(c2c1)CN(S(=O)(=O)c1ccc(C(F)(F)F)cc1)CC3` [2-19, N-(1-benzylpiperidin-4-yl)-2-(4-(trifluoromethyl)phenylsulfonyl)-2,3,4,5 - tetrahydro-1H-pyrido[4,3-b]indole-8-carboxamide] registered a 50% effective concentration (EC50) of more than 100000 nM.
`O=C(NC1CCN(C(=O)c2cccnc2)CC1)c1ccc2[nH]c3c(c2c1)CN(c1ccc(F)cc1)CC3` [2-40, 2-(4-fluorophenyl)-N-(1-nicotinoylpiperidin-4-yl)-2,3,4,5-tetrahydro-1H-pyrido [4,3-b]indole-8-carboxamide] returned a half-maximal effective concentration (EC50) of more than 100000 nM.
On the same count and under the same terms, next, `N#Cc1ccc(CN2CCC(NC(=O)c3ccc4[nH]c5c(c4c3)CN(S(=O)(=O)c3cccnc3)CC5)CC2)cc1` [2-26, N-(1-(4-cyanobenzyl)piperidin-4-yl)-2-(pyridin-3-ylsulfonyl)-2,3,4,5-tetrahydro-1H-pyrido[4,3-b] indole-8-carboxamide]: 10000 to 50000 nM.

Still in this assay, the particulars now being: compounds of Table 3 (Table 8).
On to `NC(=O)c1ccc(CN2CC3CC2CN3C(=O)c2nc3ccc(OC4CCN(c5ccc(C(F)(F)F)cc5)CC4)cc3o2)cc1` (stereo not drawn) [3-9, 4-((5-(6-(1-(4-(trifluoromethyl)phenyl)piperidin-4-yloxy)benzo[d]oxazole-2-carbonyl)-2,5-diazabicyclo[2.2.1]heptan-2-yl)methyl)benzamide], for which the EC50 lay in the range of 100 to 1000 nM.
Take `O=C(NC1CCN(Cc2ccncc2)CC1)c1cnc(OC2CCN(c3ccc(C(F)(F)F)cc3)CC2)cn1` [3-21, N-(1-(pyridin-4-ylmethyl)piperidin-4-yl)-5-(1-(4-(trifluoromethyl)phenyl)piperidin-4-yloxy)pyrazine-2-carboxamide]: the EC50 is less than 100 nM.
Take `N#Cc1ccc(CN2CCC(NC(=O)c3ccc(C(=O)NC4CCN(c5ccccc5)CC4)cc3)CC2)cc1` [3-32, N^1-(1-(4-cyanobenzyl)piperidin-4-yl)-N^4-(1-phenylpiperidin-4-yl)terephthalamide]: the EC50 fell in the range of 10000 to 100000 nM.
For the compound `N#Cc1ccc(CN2CCC(NC(=O)c3ccc4c(c3)CN(Cc3ccc(F)cc3)CC4)CC2)cc1` [3-34, N-(1-(4-cyanobenzyl)piperidin-4-yl)-2-(4-fluorobenzyl)-1,2,3,4-tetrahydroisoquinoline-7-carboxamide], the EC50 was less than 100 nM.
`CC(C)(C)OC(=O)N1CCC(NC(=O)c2nc3ccc(OC4CCN(c5ccc(C(F)(F)F)cc5)CC4)cc3o2)CC1` [3-1, tert-butyl 4-(6-(1-(4-(trifluoromethyl)phenyl)piperidin-4-yloxy)benzo[d]oxazole-2-carboxamido)piperidine-1-carboxylate] registered an EC50 of less than 100 nM.

Staying with this assay, now noted: compounds of Table 5 (Table 10).
Compound `COc1cc(C(=O)NC2CCN(Cc3ccccc3)CC2)ccc1OC1CCN(CCCc2ccccc2)CC1` [5-7, N-(1-benzylpiperidin-4-yl)-3-methoxy-4-(1-(3-phenylpropyl)piperidin-4-yloxy)benzamide] showed an EC50 of less than 1000 nM.
`O=C(NC1CCN(Cc2ccccc2)CC1)c1ccc(OC2CCN(C(=O)c3ccc(C(F)(F)F)cc3)CC2)c(Cl)c1` [5-18, N-(1-benzylpiperidin-4-yl)-3-chloro-4-(1-(4-(trifluoromethyl)benzoyl)piperidin-4-yloxy)benzamide] displayed an EC50 of less than 1000 nM.
Consider `O=C(NC1CCN(Cc2ccccc2)CC1)c1cccc(OC2CCN(Cc3ccccc3)CC2)c1` [5-13, N-(1-benzylpiperidin-4-yl)-3-(1-benzylpiperidin-4-yloxy)benzamide], for which the EC50 lay in the range of 20000 to 50000 nM.
As to `O=C(NC1CCN(Cc2ccccc2)CC1)c1ccc(OC2CCN(Cc3cccnc3)CC2)c(F)c1` [5-38, N-(1-benzylpiperidin-4-yl)-3-fluoro-4-(1-(pyridin-3-ylmethyl)piperidin-4-yloxy)benzamide], the EC50 lay in the range of 1000 to 10000 nM.
